Assay [1] has as its system sterol regulatory element binding protein-1c (SREBP-1c). As to the kind of experiment: Hepatic gene expression of SREBP-1c (real-time PCR). Format: in vivo, mice. To be noted: 10% 2′-FL supplementation diet, 8 weeks. As to the method:
(§1) Body composition for fat and lean mass (FIGS. 2A and 2B) was analyzed in live animals using EchoMRI-100 ™ from Echo Medical Systems (Houston, Tex.) every two weeks in mice fed an LF or HF with or without 10% 2′-FL supplementation. To measure the size of adipocytes (FIG. 2C), mesenteric adipose tissue collected at euthanasia was fixed in 10% neutral-buffered formalin (Thermo Fisher Scientific, Waltham, Mass.) overnight and transferred to 70% ethanol for one day. Afterwards, the tissues were processed in a routine manner for paraffin sections (Tissue Tek VIP Tissue Processor; Sakura Finetek USA, Torrance, Calif.). Paraffin-embedded sections (5 μm) were cut and stained with H&E (Sigma-Aldrich) for microscopic examination (Olympus BX60, Waltham, Mass.) at 20× magnification. To quantitate adipocyte size (FIG. 2C), the H&E-stained sections were analyzed using the ImageJ software (National Institutes of Health, Bethesda, Md.). […] Genes of interest were analyzed according to the 2^−ΔΔT method and compared with control samples. […]

Assay [2] can be described thus: Body composition (EchoMRI fat and lean mass) and adipocyte size in mice fed LF or HF with or without 10% 2′-FL. The format is in vivo. The settings on record: 10% 2′-FL supplementation diet, 8 weeks. As for the experimental part: Body composition for fat and lean mass (FIGS. 2A and 2B) was analyzed in live animals using EchoMRI-100 ™ from Echo Medical Systems (Houston, Tex.) every two weeks in mice fed an LF or HF with or without 10% 2′-FL supplementation. To measure the size of adipocytes (FIG. 2C), mesenteric adipose tissue collected at euthanasia was fixed in 10% neutral-buffered formalin (Thermo Fisher Scientific, Waltham, Mass.) overnight and transferred to 70% ethanol for one day. Afterwards, the tissues were processed in a routine manner for paraffin sections (Tissue Tek VIP Tissue Processor; Sakura Finetek USA, Torrance, Calif.). Paraffin-embedded sections (5 μm) were cut and stained with H&E (Sigma-Aldrich) for microscopic examination (Olympus BX60, Waltham, Mass.) at 20× magnification. To quantitate adipocyte size (FIG. 2C), the H&E-stained sections were analyzed using the ImageJ software (National Institutes of Health, Bethesda, Md.). For hepatic gene expression of peroxisome proliferator-activated receptor γ (PPAR γ) and sterol regulatory element binding protein-1c (SREBP-1c) (FIGS. 2D and 2E), total RNA from liver samples was extracted via the TRIzol method (Life Technologies, Grand Island, N.Y.). cDNAs were synthesized from […] of purified RNA samples using iScript cDNA synthesis kit (Bio-Rad, Hercules, Calif.) following the manufacturer's protocol. Real-time PCR was performed with the Quantstudio 6 Flex real-time PCR machine using SyberGreen master mix (Life Technologies) for detection. R-Actin and GAPDH were used as housekeeping genes. Genes of interest were analyzed according to the 2^−ΔΔT method and compared with control samples.
For FIGS. 2A-2E, statistical analysis was performed by using Prism software (Prism 8.4; GraphPad Software, La Jolla, Calif.). Data are presented as means±SEMs. ROUT test was used to exclude outliers. Differences were considered significant if P<0.05.

Assay [3] deals with lipopolysaccharide-binding protein (LBP). The assay can be described thus: Plasma LBP level by enzyme-linked immunosorbent assay. The format is in vivo, mice. To be noted: HF + 10% 2′-FL in drinking water, 6 weeks. As for the experimental part:
(§2) To measure gut permeability (FIGS. 4A and 4B), a section of cecum was opened along the mesenteric border and mounted in Ussing chambers (Physiologic Instruments, San Diego, Calif.), exposing 0.3 cm^2 of tissue surface area to 2.5 ml of oxygenated Krebs-glucose (10 mM) and Krebs-mannitol (10 mM) at 37° C. on the serosal and luminal sides, respectively. The paracellular pathway and transcellular pathway were measured as the flux of FITC-4000 (FD-4; Sigma-Aldrich) and horseradish peroxidase (HRP Type VI; Sigma Aldrich), respectively. FD-4 ([…]) and HRP ([…]) were added to the mucosal chamber, and samples were collected from the serosal chamber every 30 min for 2 h. The concentration of FD-4 was measured via fluorescence at excitation of 485 nm and emission of 538 nm. O-dianisidine substrate was used to detect HRP at absorbance 450 nm. Data are shown as flux at 90 min. Gene expression of IL-22 in the ileum (FIG. 4C) and MCP-1 (FIG. 4E) in adipose tissue were measured as described in Example 2. LBP levels (FIG. 4D) were detected in plasma via enzyme-linked immunosorbent assay according to manufacturer's recommendation (Biometec). […] For FIGS. 4A-4E, statistical analysis was performed by using Prism software (Prism 8.4; GraphPad Software, La Jolla, Calif.). Data are presented as means SEMs. ROUT test was used to exclude outliers. Differences were considered significant if P<0.05.

Assay [4] can be described thus: Gut permeability of cecum in Ussing chambers (FD-4 flux). Format: in vivo, mice. To be noted: 10% 2′-FL supplementation diet, 8 weeks, flux at 90 min. As for the experimental part: as §2
Assay [5] has as its system monocyte chemoattractant protein-1 (MCP-1). The assay can be described thus: Gene expression of MCP-1 in adipose tissue (real-time PCR). The format is in vivo, mice. The settings on record: HF + 10% 2′-FL in drinking water, 6 weeks. As to the method:
as §2

Assay [6] can be described thus: Body weight and energy intake in mice fed a high-fat diet with 2′-FL in drinking water. The settings on record: 2′-FL 10% (w/v) in drinking water, 6 wk, vs HF group. The format is in vivo, Male C57/BL6 mice. As to the method:
Animals were maintained and handled in accordance with protocols approved by the Institutional Animal Care and Use Committee (University of California, Davis). Male C57/BL6 mice (n=6/group; 6 week old, Harlan, San Diego, Calif.) were split into three weight-matched groups and fed either a low-fat (LF; 10% kcal as fat), high-fat (HF; 45% kcal as fat), or HF diet with 2′-FL (HF_2′-FL) at 10% (w/v) in drinking water for 6 wk. All animals were housed individually at 22° C. with 12 h:12 h light-dark cycles. Body weight and food intake were measured twice a week. Statistical analysis was performed using Prism software (Prism 8.1.2; GraphPad Software). Six-week HF feeding increased energy intake compared to the LF groups but without statistical significance (FIG. 1B). […] For FIGS. 1A and 1B, data are presented as means±SEMs. ROUT test was used to exclude outliers. Differences were considered significant if P<0.05.

The subject of assay [7] is peroxisome proliferator-activated receptor γ (PPAR γ). The assay can be described thus: Hepatic gene expression of PPARγ (real-time PCR). The format is in vivo, mice. To be noted: 10% 2′-FL supplementation diet, 8 weeks. As for the experimental part:
as §1

The nature of assay [8]: CCK feeding study (food intake after i.p. CCK). Format: in vivo, mice. To be noted: HF + 10% 2′-FL, CCK i.p. vs saline, 6 h fast. As to the method:
(§3) After 4 weeks on respective diets, 2′-FL sensitivity to the satiating effect of the gut peptide CCK was tested (FIG. 3A). Experiments were performed at the onset of the dark phase. Mice were fasted on wire-bottom cages for 6 h during the light phase. At the onset of the dark phase, CCK (octapeptide, sulfated, Bachem, Torrance, Calif., 100 μl at […]; i.p.) or saline (100 μl; i.p.) was administered. Food was placed in the cage and food intake recorded after 20 min. After 6 weeks of respective diets, c-Fos expression in hindbrain was determined. (FIGS. 3B and 3C). Mice were fasted for 4 h, ip injected with CCK ([…]), and euthanized using deep anesthesia induced with pentobarbital (Fatal Plus, Vortech Pharmaceuticals, Dearborn, Mich., USA; 300 mg/kg; i.p.). The hindbrain was collected and post-fixed in 4% paraformaldehyde (Electron Microscopy Sciences, Hatfield, Pa.). Hindbrains were cryosectioned at 30 μm thickness and stained for c-Fos protein expression in the NTS and AP regions. […] Images were acquired using a confocal microscope (Leica TCS SP8 STED 3×; Leica, Wetzlar, Germany) and quantified in a blinded manner using Imaris Software (Bitplane, Zurich, Switzerland). […]

In the next assay the test system is c-Fos. The assay can be described thus: c-Fos expression in hindbrain (NTS and AP) after CCK injection. The format is in vivo, mice. The settings on record: 10% 2′-FL supplementation, CCK i.p. As for the experimental part: as §3

Entries after “also recorded” stand apart in the source; their conditions may differ.

Regarding 2′-fucosyllactose [2′-FL], the “gene expression of SREBP-1c in the liver” value in assay [1] is given as “downregulates”. In [2], the “adipogenesis (adipocyte size in visceral adipose tissue)” value is on record as “suppresses adipogenesis”, the “adiposity (fat body mass)” value is “reduced adiposity” and the lean mass result is “preserving lean mass”. The “circulating LPB levels” value in assay [3] was “reduced circulating LPB levels”. The “paracellular permeability (FD-4 flux in cecum)” value in assay [4] is given as “decreased paracellular permeability”. The “expression of inflammatory cytokines in adipocytes (MCP-1 gene expression in adipose tissue)” value in [5] is given as “significant decrease of MCP-1 gene expression; also recorded: systemically lowered expression of inflammatory cytokines in adipocytes”. Further, in [6] (HF diet (45% kcal as fat)), the energy intake result is listed as “suppressed”. Moreover, the body weight entry in assay [6] (HF diet) is “lower body weight compared with the HF group”. Further, the “gene expression of PPAR γ in the liver” value in assay [7] is recorded as “downregulates”. In addition, the “sensitivity to the satiating effect of CCK (food intake after 20 min)” value in assay [8] is given as “restores sensitivity to CCK”. The “intestinal satiety signals (c-Fos immunopositive cells in NTS and AP)” value with c-Fos is recorded as “restores intestinal satiety signals”.
